Target: Serine/threonine-protein kinase B-raf (Homo sapiens, UniProt P15056, V600E)
Conditions: not given

Sequence of Serine/threonine-protein kinase B-raf (P15056 2-766 V600E limits assumed): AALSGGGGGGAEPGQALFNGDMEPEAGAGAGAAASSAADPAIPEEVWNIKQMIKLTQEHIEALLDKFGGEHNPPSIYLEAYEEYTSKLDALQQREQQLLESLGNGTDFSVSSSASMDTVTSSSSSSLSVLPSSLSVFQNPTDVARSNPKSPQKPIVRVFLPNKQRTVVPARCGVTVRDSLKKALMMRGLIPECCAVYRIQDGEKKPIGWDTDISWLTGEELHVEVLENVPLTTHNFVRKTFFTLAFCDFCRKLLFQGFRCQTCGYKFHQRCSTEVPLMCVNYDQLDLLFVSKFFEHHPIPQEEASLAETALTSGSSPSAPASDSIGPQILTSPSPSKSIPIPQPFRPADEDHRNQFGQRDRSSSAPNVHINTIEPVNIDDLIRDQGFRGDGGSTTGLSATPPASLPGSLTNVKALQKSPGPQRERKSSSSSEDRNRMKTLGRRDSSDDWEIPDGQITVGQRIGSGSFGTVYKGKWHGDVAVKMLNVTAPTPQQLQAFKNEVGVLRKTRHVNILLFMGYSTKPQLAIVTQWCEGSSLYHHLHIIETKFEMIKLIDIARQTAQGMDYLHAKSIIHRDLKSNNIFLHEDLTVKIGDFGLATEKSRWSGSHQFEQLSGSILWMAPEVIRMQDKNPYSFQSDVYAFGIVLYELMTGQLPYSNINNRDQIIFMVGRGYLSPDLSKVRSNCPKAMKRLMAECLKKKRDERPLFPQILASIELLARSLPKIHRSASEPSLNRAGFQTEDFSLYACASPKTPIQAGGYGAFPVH

Row | Structure (SMILES) | IC50 [nM]
1 | O=S(=O)(Nc1ccc(F)c(C#Cc2cnc3[nH]nc(-c4ccccc4)c3c2)c1F)c1cccnc1 | 16
2 | Cc1n[nH]c2ncc(C#Cc3c(F)ccc(NS(=O)(=O)c4cccnc4)c3F)cc12 | 25
3 | O=S(=O)(Nc1ccc(F)c(C#Cc2cnc3[nH]nc(-c4cccc(Cl)c4)c3c2)c1F)c1cccnc1 | 107
4 | COc1n[nH]c2ncc(C#Cc3c(F)ccc(NS(=O)(=O)c4cccnc4)c3F)cc12 | 17
5 | O=S(=O)(Nc1ccc(F)c(C#Cc2cnc3[nH]ncc3c2)c1F)c1ccccc1F | 177

Test system: HCT-116
Assay: Antiproliferative activity against human HCT116 cells expressing wild type B-Raf incubated for 68 hrs by MTT assay
Type: functional, cell-based
Conditions: HCT-116, 68 h

Row | Structure (SMILES) | IC50 [nM]
6 | O=S(=O)(Nc1ccc(F)c(C#Cc2cnc3[nH]nc(-c4ccccc4)c3c2)c1F)c1cccnc1 | > 10000
7 | Cc1n[nH]c2ncc(C#Cc3c(F)ccc(NS(=O)(=O)c4cccnc4)c3F)cc12 | 4630
8 | O=S(=O)(Nc1ccc(F)c(C#Cc2cnc3[nH]nc(-c4cccc(Cl)c4)c3c2)c1F)c1cccnc1 | > 10000
9 | COc1n[nH]c2ncc(C#Cc3c(F)ccc(NS(=O)(=O)c4cccnc4)c3F)cc12 | 1280
10 | O=S(=O)(Nc1ccc(F)c(C#Cc2cnc3[nH]ncc3c2)c1F)c1ccccc1F | > 10000

Test system: not listed separately
Assay: Antiproliferative activity against human COLO205 cells expressing B-Raf V600E mutant incubated for 68 hrs by MTT assay
Type: functional, cell-based
Conditions: COLO 205, 68 h

Row | Structure (SMILES) | IC50 [nM]
11 | O=S(=O)(Nc1ccc(F)c(C#Cc2cnc3[nH]nc(-c4ccccc4)c3c2)c1F)c1cccnc1 | 200
12 | Cc1n[nH]c2ncc(C#Cc3c(F)ccc(NS(=O)(=O)c4cccnc4)c3F)cc12 | 148
13 | O=S(=O)(Nc1ccc(F)c(C#Cc2cnc3[nH]nc(-c4cccc(Cl)c4)c3c2)c1F)c1cccnc1 | > 10000
14 | COc1n[nH]c2ncc(C#Cc3c(F)ccc(NS(=O)(=O)c4cccnc4)c3F)cc12 | 89
15 | O=S(=O)(Nc1ccc(F)c(C#Cc2cnc3[nH]ncc3c2)c1F)c1ccccc1F | 534
